Patent US20090298055A1, “PRODUCTION OF PROTEINS” (Applied Research Systems ARS Holding S.A., priority 2004, published 2009)
“Also recorded” adds a separate entry of the source.

Columns and labels:
Format in all cases: cell-based, Chinese hamster
[1] = system: hRFC and hRFC-HA CHO AA8 C5R0.15 transfectants; assay: MTX growth inhibition assay
Procedure: (§1) Cell growth inhibition by antifolates—For antifolate cell growth inhibition, cells (10^4/well) were seeded in 24-well plates in the respective growth medium (AA8 and derivatives in RPMI+10% FCS, and CHO-S cells in CD-CHO) containing various concentrations of MTX or the lipophilic antifolates, trimeterxate (Dr. David Fry, Warner-Lambert, Parke-Davis, Detroit, Mich.) and incubated for 3 days at 37° C. Thereafter, cells were detached by trypsinization and the number of viable cells was determined using trypan blue exclusion. The 50% inhibitory concentration (IC50) is defined as the drug concentration at which cell growth is inhibited by 50% relative to untreated controls.
(§2) Cell growth assays and inhibition by antifolates—as described in Example 2, hereinabove.

[2] = system: parental CHO AA8 C5 cells (RFC deficient); assay: MTX growth inhibition assay; conditions: Cricetulus griseus, 72 h, 3 days
Procedure: as §1, §2

[3] = system: CHO AA8 C4R0.15 and CHO AA8 C5R0.15 cells; assay: F-MTX staining and competition with antifolates (flow cytometry); conditions: CHO AA8 C4R0.15 and C5R0.15 cells
Procedure: (§3) F-MTX staining and competition with hydrophilic and lipophilic antifolates—Cells were seeded in 60-mm Petri dish and incubated for 8 hours at 37° C. in growth medium containing 2 μM fluorescein-MTX (F-MTX). Cells were then washed with PBS and subjected to competition with MTX and its lipophilic analogue TMQ. Following 3 hours of incubation, cells were detached by trypsinization, suspended in PBS containing 1% fetal calf serum and the residual green fluorescence per cell was determined using a flow cytometer (FACSCalibur, Becton-Dickinson) at an excitation of 488 nm and emission of 525 nm. Autofluorescence of unstained cells was routinely recorded.

CHO AA8 cells [4] = assay: as above
Procedure: as §3

CHO-S R0.15 cells = assay: as above; conditions: for concentration for complete displacement of F-MTX: 2 μM F-MTX, 3 hours competition
Procedure: as §3

CHO-S cells [5] = assay: as above; conditions: 2 μM F-MTX, 3 hours competition
Procedure: as §3

[6] = system: CHO AA8 C4 R0.15 and C5 R0.15 cell lines; assay: [3H]-MTX transport assay; conditions: 2 μM [3H]-MTX, 3 minutes
Procedure: (§4) [^3H]-MTX transport—In order to determine the ability of the antifolate-resistant clones to take up antifolates the influx rates of [^3H]-MTX were measured and compared to the control CHO AA8 cells. Cells (2×10^7) from the mid-log phase of growth were washed three times in transport buffer consisting of HEPES-buffered saline solution (HBSS, Rothem et al., 2002) and incubated for 3 minutes at 37° C. in the presence of HBSS (1 ml suspensions) containing 2 μM [^3H]-MTX. Transport controls contained a 500-fold excess (1 mM) of unlabeled MTX. The transport of [^3H]-MTX was stopped by the addition of 10 ml of ice-cold HBSS. The cell suspension was then centrifuged for 5 minutes at 4° C. using a centrifugation speed of 500×g, following which the cell pellet was washed twice with 10 ml of ice-cold transport buffer. The final cell pellet was suspended in water and processed for scintillation counting.

[7] = system: CHO-S-R0.04 cells (selected in 40 nM MTX); assay: [3H]-MTX transport assay; conditions: 2 μM [3H]-MTX, 3 minutes
Procedure: as §4

[8] = system: CHO-S-R0.12 cells (selected in 120 nM MTX); assay: [3H]-MTX transport assay; conditions: 2 μM [3H]-MTX, 3 minutes
Procedure: as §4

CHO AA8 cells [9] = assay: Cell growth inhibition by lipophilic antifolates; conditions: Cricetulus griseus; printed after 'CHO AA8 counterpart', data not shown
Procedure: as §1

[10] = system: MTX-resistant CHO AA8 C4R0.15 and C5R0.15 cells; assay: Cell growth inhibition by lipophilic antifolates; conditions: data not shown
Procedure: as §1

[11] = system: CHO-S R0.15 cells (RFC deficient); assay: Cell growth inhibition by antifolates (trypan blue exclusion, 3 days)
Procedure: as §1

CHO-S cells [12] = assay: as above; conditions: Cricetulus griseus, 72 h, read-out: 50% inhibition of cell growth (IC50)
Procedure: as §1

| Compound | IC50 ([1]; Cricetulus griseus, CHO-AA8, 72 h, hRFC and hRFC-HA transfectants, 3 days) [nM] | increase in MTX sensitivity ([1]; RFC and RFC-HA transfectants vs C5R0.15 cells) [fold] | IC50 [2] [nM] | concentration required to completely displace F-MTX fluorescence [3] [µM] | concentration resulting in complete loss of F-MTX fluorescence (CHO AA8 cells [4]) [nM] | concentration for complete displacement of F-MTX (CHO-S R0.15 cells) [nM] | loss of cellular F-MTX staining (CHO-S R0.15 cells; competition with 100 nM MTX) | concentration at which cells completely lost their F-MTX staining (CHO-S cells [5]) [nM] | loss of MTX uptake relative to control AA8 cells [6] | loss of control CHO-S transport activity [7] [%] | loss of control CHO-S transport activity [8] [%] | IC50 (CHO AA8 cells [9]) [nM] | hypersensitivity compared to CHO AA8 counterpart [10] [fold] | IC50 ([11]; Cricetulus griseus, 72 h, CHO-S R0.15 cells, read-out: 50% inhibition of cell growth (IC50)) [nM] | hypersensitivity of CHO-SR0.15 cells as compared with parental CHO cells ([11]; ratio of 50% inhibitory concentrations) [fold] | IC50 (CHO-S cells [12]) [nM] | concentration resulting in complete loss of F-MTX fluorescence (CHO-S cells [5]) [nM] |
| --- | --- | --- | --- | --- | --- | --- | --- | --- | --- | --- | --- | --- | --- | --- | --- | --- | --- |
| CN(Cc1cnc2nc(N)nc(N)c2n1)c1ccc(C(=O)N[C@@H](CCC(=O)O)C(=O)O)cc1 [MTX, methotrexate] | 27 to 29 | 100 | ~3000 | 3 | 30 | 1000 | did not result in any loss; also recorded: Retention of F-MTX fluorescence | 100 | 90-91% | 92.5 | 96.4 | – | – | – | – | – | – |
| COc1ccc(OC)c(Cc2cnc3nc(N)nc(N)c3c2C)c1 [PTX, piritrexim] | – | – | – | – | – | – | – | – | – | – | – | ~8 | > 3 | – | – | – | – |
| COc1cc(NCc2ccc3nc(N)nc(N)c3c2C)cc(OC)c1OC [TMQ, Trimetrexate] | – | – | – | – | – | 10 | – | – | – | – | – | ~6 | > 5 | 10 | 8 | ~40 | 10 |
